Reference: patent US5258406A, “Sulfonimidamides” (priority 1992, dated 1993)
Values joined by “and” are separate entries in the source; they are usually repeats but may differ in a detail not shown here. Equal entries are not always repeated. Where two headings read alike, the source gives them in different places.

Tested on: 6C3HED lymphosarcoma
Assay: animal or person
Type: in vivo
Conditions: for inhibition in vivo at 75 mg/kg: read-out: % inhibition of tumor growth, oral, 75 mg/kg, BIDX 8; for inhibition in vivo at 100 mg/kg: read-out: % inhibition of tumor growth, oral, 100 mg/kg, BIDX 8
Experimental: The compounds were tested in C3H mice bearing a 6C3HED lymphosarcoma, also known as the Gardner lymphosarcoma (GLS), and in a variety of human tumor xenografts in CD1 nu/nu mice, including CX-1, LX-1, HXGC3, and VRC5. The 6C3HED lymphosarcoma was obtained from the Division of Cancer Treatment, National […] Institute, Tumor Bank, maintained at E. G. and G. Mason Research (Worcester, Mass.). The CX-1 human colon carcinoma and the LX-1 human lung carcinoma xenografts were obtained from the National Cancer Institute. The HXGC3 and VRC5 human colon xenografts were obtained from Dr. P. J. Houghton, St. Jude Children's Hospital in Memphis (see Br. J. Cancer, 37, 213 (1978)). First passage tumor was stored in liquid nitrogen using standard techniques. The transplanted tumor was reestablished from the Tumor Bank every six months or as needed. The tumor was maintained by serial passage twice weekly in C3H mice.
In the procedure the tumor was removed from passage animals and minced into 1- to 3-mm square fragments using sterile techniques. Tumor pieces were checked for sterility using both Antibiotic Medium 1 and Brain Heart Infusion (Difco, Detroit, Mich.). Recipient mice were shaved and tumor pieces were implanted subcutaneously in the auxiliary region by trocar. Drug therapy on the appropriate schedule was initiated on the day after tumor implant for 6C3HED and after a seven (7) day delay for xenografts (or other delay as noted in Table 2). The compound being tested was mixed with 2.5% Emulphor EL620 from GAF Corporation (1:40 dilution in saline). Food and water were provided ad libitium. The drug was administered orally in 0.5 ml of 2.5% Emulphor (unless otherwise indicated). The tumor was measured the day after treatment ended with two dimensional measurements (width and length) of the tumor taken using automated digital calipers interfaced to a microcomputer. Approximate weight for the tumor was calculated using the following formula [Worzalla, J. F., et al., Invest. New Drugs, 8, 241 (1990], (tumor weight in mg)=(width in mm)^2 ×(length in mm)/2.
At least one control group of an equal number of mice was treated with the same volume of 2.5% Emulphor only. The percent inhibition was determined by subtracting the ratio of the mean tumor size of the test group relative to the control group from one and multiplying the result times 100.
The results of several experiments in mice bearing a 6C3HED lymphosarcoma (or other tumor where indicated) when the indicated compounds were administered are provided in Table 2. In Table 2, column 1 gives the Example number of the compound used, column 2 lists the dose level in mg/kg, column 3 provides the percent inhibition of tumor growth, column 4 gives the number of mice which died relative to the total number of animals in the group, column 5 gives the method of administration of the compound, and column 6 gives the dosage schedule. The protocol used with other tumors was the same as with the 6C3HED lymphosarcoma.

[1] = Mus musculus, 6C3HED, po, read-out: % inhibition of tumor growth, oral, 50 mg/kg, BIDX 8
[2] = Mus musculus, 6C3HED, po, read-out: % inhibition of tumor growth, oral, 150 mg/kg, BIDX 8
[3] = Mus musculus, 6C3HED, po, read-out: % inhibition of tumor growth, oral, 25 mg/kg, BIDX 8
[4] = Mus musculus, 6C3HED, po, read-out: % inhibition of tumor growth, oral, 300 mg/kg, BIDX 8
[5] = Mus musculus, 6C3HED, ip, read-out: % inhibition of tumor growth, IP, 150 mg/kg, DX 8

Structure (SMILES)	inhibition in vivo at 50 mg/kg [1] [%]	inhibition in vivo at 75 mg/kg (Mus musculus, 6C3HED, po) [%]	inhibition in vivo at 150 mg/kg [2] [%]	Tox/Tot (mice which died / total) (oral, 50 mg/kg, BIDX 8)	Tox/Tot (mice which died / total) (oral, 75 mg/kg, BIDX 8)	Tox/Tot (mice which died / total) (oral, 150 mg/kg, BIDX 8)	Tox/Tot (mice which died / total) (oral, 300 mg/kg, BIDX 8)	inhibition in vivo at 25 mg/kg [3] [%]	inhibition in vivo at 100 mg/kg (Mus musculus, 6C3HED, po) [%]	inhibition in vivo at 300 mg/kg [4] [%]	Tox/Tot (mice which died / total) (oral, 25 mg/kg, BIDX 8)	Tox/Tot (mice which died / total) (oral, 100 mg/kg, BIDX 8)	Tox/Tot (mice which died / total) (IP, 150 mg/kg, DX 8)	Tox/Tot (mice which died / total) (IP, 300 mg/kg, DX 8)	inhibition in vivo at 150 mg/kg [5] [%]	other results
NS(=O)(=NC(=O)Nc1ccc(Cl)cc1)c1ccc(Br)cc1 (stereo not drawn) [Example 30]	55	67	99	0/10	0/10	3/10 and 1/10	10/10									inhibition in vivo at 9 mg/kg (Mus musculus, 6C3HED, po, read-out: % inhibition of tumor growth, oral, 9.00 mg/kg, BIDX 8): 4%; inhibition in vivo at 18.75 mg/kg (Mus musculus, 6C3HED, po, read-out: % inhibition of tumor growth, oral, 18.75 mg/kg, BIDX 8): 19%; inhibition in vivo at 37.5 mg/kg (Mus musculus, 6C3HED, po, read-out: % inhibition of tumor growth, oral, 37.5 mg/kg, BIDX 8): 42%; Tox/Tot (mice which died / total) (oral, 9.00 mg/kg, BIDX 8): 0/10; Tox/Tot (mice which died / total) (oral, 18.75 mg/kg, BIDX 8): 1/10; Tox/Tot (mice which died / total) (oral, 37.5 mg/kg, BIDX 8): 1/10; % inhibition of tumor growth (oral, 150 mg/kg, BIDX 8): 89%; % inhibition of tumor growth (oral, 300 mg/kg, BIDX 8): TOX
CCc1ccc(S(=N)(=O)NC(=O)Nc2ccc(Cl)cc2)cc1 (stereo not drawn) [Example 33, N-[[(4-chlorophenyl)amino]carbonyl]-4-ethylbenzenesulfonimidamide]	98		100	1/10		8/10	8/10	91	99	100	2/10	0/10				inhibition in vivo at 6.25 mg/kg (Mus musculus, 6C3HED, po, read-out: % inhibition of tumor growth, oral, 6.25 mg/kg, BIDX 8): 36%; inhibition in vivo at 12.5 mg/kg (Mus musculus, 6C3HED, po, read-out: % inhibition of tumor growth, oral, 12.5 mg/kg, BIDX 8): 60%; Tox/Tot (mice which died / total) (oral, 6.25 mg/kg, BIDX 8): 0/10; Tox/Tot (mice which died / total) (oral, 12.5 mg/kg, BIDX 8): 0/9
Cc1cc(C)cc(S(N)(=O)=NC(=O)Nc2ccc(Cl)cc2)c1 (stereo not drawn) [Example 39]									44			0/10				inhibition in vivo at 200 mg/kg (Mus musculus, 6C3HED, po, read-out: % inhibition of tumor growth, oral, 200 mg/kg, BIDX 8): 77%; Tox/Tot (mice which died / total) (oral, 200 mg/kg, BIDX 8): 0/10
CC(=O)OCc1ccc(S(=N)(=O)NC(=O)Nc2ccc(Cl)cc2)cc1 (stereo not drawn) [Example 49, N-[[(4-chlorophenyl)amino]carbonyl]-4-(acetoxymethyl)benzenesulfonimidamide]	87	96	99	0/10	0/10	0/10	3/10	64		100	0/10		8/10	10/10	99	Tox/Tot (mice which died / total) (IP, 12.5 mg/kg, DX 8): 0/10; Tox/Tot (mice which died / total) (IP, 25 mg/kg, DX 8): 0/10; Tox/Tot (mice which died / total) (IP, 50 mg/kg, DX 8): 1/10; % inhibition of tumor growth (IP, 300 mg/kg, DX 8): TOX; inhibition in vivo at 12.5 mg/kg (Mus musculus, 6C3HED, ip, read-out: % inhibition of tumor growth, IP, 12.5 mg/kg, DX 8): 29%; inhibition in vivo at 25 mg/kg (Mus musculus, 6C3HED, ip, read-out: % inhibition of tumor growth, IP, 25 mg/kg, DX 8): 36%; inhibition in vivo at 50 mg/kg (Mus musculus, 6C3HED, ip, read-out: % inhibition of tumor growth, IP, 50 mg/kg, DX 8): 63%
N=S(=O)(NC(=O)Nc1ccc(Cl)cc1)c1ccc(C=O)cc1 (stereo not drawn) [Example 51, N-[[(4-chlorophenyl)amino]carbonyl]-4-formylbenzenesulfonimidamide]													0/10	9/10	80	inhibition in vivo at 300 mg/kg (Mus musculus, 6C3HED, ip, read-out: % inhibition of tumor growth, IP, 300 mg/kg, DX 8): 99%
